The source of these data is ChEMBL document CHEMBL5120980, “Stereoisomers of an Aryl Pyrazole Glucocorticoid Receptor Agonist Scaffold Elicit Differing Anti-inflammatory Responses” (ACS Med Chem Lett, 2022).

Each structure is given as a SMILES string.

Assay [1] addresses T1, Glucocorticoid receptor (Rattus norvegicus, UniProt P06536).
T1 sequence (P06536 whole entry): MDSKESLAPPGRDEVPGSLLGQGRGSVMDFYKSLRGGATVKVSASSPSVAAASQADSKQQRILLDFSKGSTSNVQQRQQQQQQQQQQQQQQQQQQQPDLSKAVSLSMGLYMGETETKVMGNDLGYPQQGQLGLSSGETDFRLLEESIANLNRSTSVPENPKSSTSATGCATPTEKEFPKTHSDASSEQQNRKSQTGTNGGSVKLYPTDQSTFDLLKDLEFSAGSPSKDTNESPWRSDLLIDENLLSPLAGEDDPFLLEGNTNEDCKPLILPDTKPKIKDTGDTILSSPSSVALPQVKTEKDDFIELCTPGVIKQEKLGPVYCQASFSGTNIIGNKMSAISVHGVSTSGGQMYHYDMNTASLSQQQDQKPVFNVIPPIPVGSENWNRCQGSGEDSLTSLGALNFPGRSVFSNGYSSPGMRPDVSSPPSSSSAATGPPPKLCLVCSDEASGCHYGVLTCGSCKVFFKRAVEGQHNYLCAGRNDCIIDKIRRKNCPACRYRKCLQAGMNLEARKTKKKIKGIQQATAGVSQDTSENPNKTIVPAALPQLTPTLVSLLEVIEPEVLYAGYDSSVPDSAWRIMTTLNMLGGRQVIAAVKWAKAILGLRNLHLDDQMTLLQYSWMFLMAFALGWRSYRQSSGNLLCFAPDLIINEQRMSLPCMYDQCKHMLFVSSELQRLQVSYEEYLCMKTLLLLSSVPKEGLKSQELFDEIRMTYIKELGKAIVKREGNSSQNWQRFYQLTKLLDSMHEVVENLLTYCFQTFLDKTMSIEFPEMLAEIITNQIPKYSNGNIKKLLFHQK
Briefly: Agonist activity at glucocorticoid receptor in rat INS-1 832/13 cells transfected with 3XGRE-promoter luciferase plasmid construct assessed as induction of receptor transactivation by luciferase reporter gene assay. The class given is cell-based. For orientation: Reporter assays use an easily measured gene product as a stand-in for the process of interest.

In assay [2] the target is T1, Glucocorticoid receptor. Briefly: Agonist activity at glucocorticoid receptor in rat INS-1 832/13 cells transfected with CCL2-promoter luciferase plasmid construct assessed as reduction in IL-1 beta induced inflammation by luciferase reporter gene assay. The class given is cell-based.

For the compound `C[C@H](O)[C@H]1CCCC2=Cc3c(cnn3-c3ccc(F)cc3)C[C@@]21C`, the concentration for a half-maximal effect (EC50) on Glucocorticoid receptor [1] was 2.51 µM. In addition, at Glucocorticoid receptor [2], the IC50 is 0.0631 µM.
The like results for `C[C@]12Cc3cnn(-c4ccc(F)cc4)c3C=C1CCC[C@@H]2[C@@H](O)C1CCCC1` were, in that order, 3.16 µM and 0.398 µM.
The like results for `C[C@]12Cc3cnn(-c4ccc(F)cc4)c3C=C1CCC[C@@H]2[C@H](O)C1CC1` were, in that order, 0.000501 µM and 2 µM.
The corresponding values for `CC(C)[C@H](O)[C@H]1CCCC2=Cc3c(cnn3-c3ccc(F)cc3)C[C@@]21C` are 1.58 µM and 0.000631 µM.
`C[C@]12Cc3cnn(-c4ccc(F)cc4)c3C=C1CCC[C@@H]2[C@H](O)c1c(F)c(F)c(F)c(F)c1F`: on Glucocorticoid receptor [1], the half-maximal effective concentration (EC50) is 2 µM. For the same compound, the concentration for half-maximal inhibition (IC50) on Glucocorticoid receptor [2] was 0.0251 µM.
The corresponding values for `C[C@]12Cc3cnn(-c4ccc(F)cc4)c3C=C1CCC[C@@H]2[C@H](O)c1ccccc1` are 0.0251 µM and 3.98 µM.
The like results for `C[C@]12Cc3cnn(-c4ccc(F)cc4)c3C=C1CCC[C@@H]2[C@@H](O)c1c(F)c(F)c(F)c(F)c1F` were, in that order, 0.251 µM and 0.0316 µM.
The like results for `C[C@@H](O)[C@H]1CCCC2=Cc3c(cnn3-c3ccc(F)cc3)C[C@@]21C` were, in that order, 0.0316 µM and 0.000316 µM.
Take `CC[C@H](O)[C@H]1CCCC2=Cc3c(cnn3-c3ccc(F)cc3)C[C@@]21C`: the EC50 on Glucocorticoid receptor [1] was 10 µM. Moreover, the IC50 at Glucocorticoid receptor [2] was 0.02 µM.
With `CC(C)[C@@H](O)[C@H]1CCCC2=Cc3c(cnn3-c3ccc(F)cc3)C[C@@]21C`, the half-maximal effective concentration (EC50) on Glucocorticoid receptor [1] is 1.58 µM. The IC50 at Glucocorticoid receptor [2] was 0.158 µM.
Consider `C[C@]12Cc3cnn(-c4ccc(F)cc4)c3C=C1CCC[C@@H]2CO`, for which, at Glucocorticoid receptor [1], the EC50 was 0.0316 µM. Also, the IC50 on Glucocorticoid receptor [2] is 0.00501 µM.
The like results for `CC[C@@H](O)[C@H]1CCCC2=Cc3c(cnn3-c3ccc(F)cc3)C[C@@]21C` were, in that order, 2.51 µM and 0.0158 µM.
The like results for `C[C@]12Cc3cnn(-c4ccc(F)cc4)c3C=C1CCC[C@@H]2[C@@H](O)C1CC1` were, in that order, 1 µM and 0.0316 µM.
Consider `C[C@]12Cc3cnn(-c4ccc(F)cc4)c3C=C1CCC[C@@H]2[C@@H](O)c1ccccc1`, for which, on Glucocorticoid receptor [1], the EC50 was 0.0631 µM. Besides, the IC50 at Glucocorticoid receptor [2] was 0.02 µM.

One may read the EC50 as the concentration at which the effect is half-maximal. As usually defined, the IC50 is the concentration that gives 50% inhibition.
